# Assay results as given in patent US20110046066A1, “INHIBITORS OF IAP” (GENENTECH, INC., priority 2008, published 2011).
# What was measured:
# C-IAP1 BIR3 = molecular target: T1, C-IAP1 BIR3 (Homo sapiens, UniProt Q13490); test: Fluorescence polarization peptide binding assay, C-IAP1 BIR3; conditions: for IC50: 0.2 μM C-IAP1 BIR3, 5 nM AVP-diPhe-FAM probe, one hour incubation; for Ki: determined from the IC50 values (procedure of Keating et al.)
# T1 construct: 0.2 μM C-IAP1 BIR3
# Method: (§1) Polarization experiments were performed on an Analyst HT 96-384 reader (Molecular Devices Corp.) in order to determine dissociation constants (Kd) between IAP protein BIR domains and the fluorescent probe. Samples for fluorescence polarization affinity experiments were prepared by addition of serial dilutions of IAP BIR domains (C-IAP1 BIR3, C-IAP-2 BIR3, ML/X-IAP chimera MLXBIR3SG and X-IAP BIR3) in polarization buffer (50 mM Tris [pH 7.2], 120 mM NaCl, 1% bovine globulins 5 mM DTT and 0.05% octylglucoside) to 5-carboxyflourescein-conjugated AVPdi-Phe-NH2 (AVP-diPhe-FAM) at 5 nM final concentration.
# (§2) The reactions were read after an incubation time of 1 hour at room temperature with standard cut-off filters for the fluorescein fluorophore (λex=485 nm; λem=530 nm) in 384-well black plates (Molecular Devices Corp.). Fluorescence polarization values were plotted as a function of the protein concentration, and the effective concentration 50 (EC50) values were obtained by fitting the data to a 4-parameter equation using Kaleidagraph software (Synergy software, Reading, Pa.). The apparent Kd values were determined from the EC50 values. Inhibition Constants (Ki values) for the antagonists were determined by the addition of 0.06 μM MLXBIR3SG, 0.5 μM X-IAP BIR3, 0.2 μM C-IAP1 BIR3 or 0.4 μM C-IAP-2 BIR3 to wells containing 5 nM of the AVP-diPhe-FAM probe as well as 1:3 serial dilutions of antagonist compounds starting at a concentration of 200 μM in the polarization buffer. Samples were read after an incubation time of one hour. Fluorescence polarization values were plotted as a function of the antagonist concentration, and the IC50 values were obtained by fitting the data to a 4-parameter equation using Kaleidagraph software (Synergy software, Reading, Pa.). Ki values for the antagonists were determined from the IC50 values according to the procedure of Keating, S. M., Marsters, J, Beresini, M., Ladner, C., Zioncheck, K., Clark, K., Arellano, F., and Bodary, S. (2000) in Proceedings of SPIE: In Vitro Diagnostic Instrumentation (Cohn, G. E., Ed.) pp 128-137, Bellingham, Wash. […] All values are micromolar.
# C-IAP2 BIR3 = molecular target: T2, C-IAP2 BIR3 (Homo sapiens, UniProt Q13489); test: Fluorescence polarization peptide binding assay, C-IAP2 BIR3; conditions: for IC50: 0.4 μM C-IAP-2 BIR3, 5 nM AVP-diPhe-FAM probe, one hour incubation; for Ki: determined from the IC50 values (procedure of Keating et al.)
# T2 construct: 0.4 μM C-IAP-2 BIR3
# T2 sequence (Q13489 238-349 limits assumed): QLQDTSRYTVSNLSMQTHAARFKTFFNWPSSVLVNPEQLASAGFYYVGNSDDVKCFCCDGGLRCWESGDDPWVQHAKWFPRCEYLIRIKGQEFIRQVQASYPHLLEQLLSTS
# Method: as §1, §2
# [1] = molecular target: T3, ML/X-IAP chimera MLXBIR3SG (Homo sapiens, UniProt Q96CA5, S150G); test: Fluorescence polarization peptide binding assay, MLXBIR3SG; conditions: for IC50: 0.06 μM MLXBIR3SG, 5 nM AVP-diPhe-FAM probe, one hour incubation; for Ki: determined from the IC50 values (procedure of Keating et al.)
# T3 sequence (Q96CA5 with tags, fused parts or gaps S150G): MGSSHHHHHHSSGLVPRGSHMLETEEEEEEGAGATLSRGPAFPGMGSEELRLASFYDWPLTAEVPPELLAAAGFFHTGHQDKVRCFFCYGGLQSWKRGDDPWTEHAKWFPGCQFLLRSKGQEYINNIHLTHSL
# Method: The following fluorescence polarization experiments used a chimeric BIR domain referred to as MLXBIR3SG in which 11 of 110 residues correspond to those found in XIAP BIR3, while the remainder correspond to ML-IAP BIR. […] The improved caspase-9 inhibition of the chimeric BIR domain MLXBIR3SG has been correlated with increased inhibition of doxorubicin-induced apoptosis when transfected into MCF7 cells.
# as §1, §2
# X-IAP BIR3 = molecular target: T4, X-IAP BIR3 (Homo sapiens, UniProt P98170); test: Fluorescence polarization peptide binding assay, X-IAP BIR3; conditions: for IC50: 0.5 μM X-IAP BIR3, 5 nM AVP-diPhe-FAM probe, one hour incubation; for Ki: determined from the IC50 values (procedure of Keating et al.)
# T4 construct: 0.5 μM X-IAP BIR3
# T4 sequence (P98170 241-356 limits assumed): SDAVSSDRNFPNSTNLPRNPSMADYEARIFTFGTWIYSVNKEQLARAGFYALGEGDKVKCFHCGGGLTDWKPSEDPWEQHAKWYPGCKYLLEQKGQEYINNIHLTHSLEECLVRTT
# Method: as §1, §2
# T1 sequence (Q13490 253-363 limits assumed): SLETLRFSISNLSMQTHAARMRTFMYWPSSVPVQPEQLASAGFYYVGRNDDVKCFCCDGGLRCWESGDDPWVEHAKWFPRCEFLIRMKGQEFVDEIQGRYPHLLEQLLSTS
IC50 (C-IAP1 BIR3),Ki (C-IAP1 BIR3),IC50 (C-IAP2 BIR3),Ki (C-IAP2 BIR3),IC50 [1],Ki [1],IC50 (X-IAP BIR3),Ki (X-IAP BIR3),Structure (SMILES)
738 nM,114 nM,1320 nM,286 nM,4540 nM,1030 nM,> 200000 nM,> 35000 nM,CN[C@@H](C)C(=O)N[C@H](C(=O)N[C@H](C(=O)Nc1cc(C)nn1-c1ccccc1)C(C)(C)SCc1ccc(OC)cc1)C1CCCCC1 [Compound 16]
155 nM,24 nM,276 nM,60 nM,304 nM,69 nM,14000 nM,2490 nM,CN[C@@H](C)C(=O)N[C@H](C(=O)N(C)[C@H](C(=O)Nc1snnc1-c1ccccc1)C(C)(C)SC)C1CCCCC1 [Compound 23]
